Results as given in publication PMC9241669, “Allantodapsone is a Pan-Inhibitor of Staphylococcus aureus Adhesion to Fibrinogen, Loricrin, and Cytokeratin 10” (Microbiology Spectrum, 2022).

System: S. aureus Newman
Assay: Agglutination (fibrinogen clumping) assay
Assay type: cell-based, Staphylococcus aureus
Details: 100 μM allantodapsone; 5 mg/mL fibrinogen; stationary phase
Method: V. Microbiology: Materials and Methods
The MTT toxicity assay (1) (Vybrant MTT Cell Proliferation Assay, Molecular Probes, Or, USA) was used to measure cytotoxicity. Myeloid lineage, U-937 cells (2) were grown in RPMI-1640 (Gibco) culture medium supplemented with 10% foetal calf serum, 1% L-glutamine and 1% Penicillin/Streptomycin (Gibco). U-937 cells were centrifuged and cells diluted with fresh medium containing 1.2 mM MTT solution to a concentration of (5-6 x 10^6 per mL) and incubated at 37 °C for 2 h. Cells were centrifuged and the pellet dissolved in DMSO. The absorbance was read at 490 nm using the Wallac Victor2, (Shelton, Connecticut, USA).
Platelet aggregation was performed in platelet rich plasma according to O’Brien et al.
S. aureus Newman (stationary phase) was washed and diluted to an OD600 of 2.5.
This was mixed with 10 mg/mL of fibrinogen in 1:1 ratio resulting in a final concentration 5 mg/mL fibrinogen. Fibrinogen -bacteria aggregates clump and settle at the bottom of the tube resulting in a clear solution. These were compared to the turbid bacterial suspension in buffer by visual inspection. […]
of S. aureus Newman was used as an agonist to stimulate platelet aggregation. The FcγRIIa antibody IV.3 (StemCell Technologies, London, UK) was used at a concentration of […]. […] Data was analysed by repeated measures ANOVA followed by a multiple comparison Dunnett’s test. […]

Structure (SMILES): Nc1ccc(S(=O)(=O)c2ccc(NCN3C(=O)NC(=O)C(=O)C3=O)cc2)cc1 [Allantodapsone]
- inhibition of clumping of bacteria in fibrinogen: did not inhibit
